Data published in patent US11076594B2, “Pyrazolone compound or salt thereof, preparation method therefor, herbicide composition and use thereof” (QINGDAO KINGAGROOT CHEMICAL COMPOUNDS CO., LTD., priority 2015, dated 2021).

How the values were obtained:
Format in all cases: in vivo
Indian mallow = experiment: weed control effect in post-emergence stage (Table 1); parameters: key: Level 10: completely dead; Level 9: above 95% growth control rate; Level 8: above 90% growth control rate; Level 7: above 80% growth control rate; Level 6: above 70% growth control rate; Level 5: above 60% growth control rate; Level 4: above 50% growth control rate; Level 3: above 20% growth control rate; Level 2: 5%-20% growth control rate; Level 1: below 5% growth control rate; settings: post-emergence spray at 4-5 leaf stage, 250 g/ha active ingredient with 450 kg/ha water, rated after 3 weeks in greenhouse
Outline: (§1)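 Weeds and crops grown in soil-filled pots in a greenhouse were sprayed at the 4-5 leaf stage (2-3 weeks after sowing). Compounds were applied in acetone with tween 80, diluted in water. After 3 weeks' culture, growth control was scored as fresh weight control rate.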

bidens bipinnata = experiment: as above; parameters: key: Level 10: completely dead; Level 9: above 95% growth control rate; Level 8: above 90% growth control rate; Level 7: above 80% growth control rate; Level 6: above 70% growth control rate; Level 5: above 60% growth control rate; Level 4: above 50% growth control rate; Level 3: above 20% growth control rate; Level 2: 5%-20% growth control rate; Level 1: below 5% growth control rate; settings: post-emergence spray at 4-5 leaf stage, 250 g/ha active ingredient with 450 kg/ha water, rated after 3 weeks in greenhouse
Outline: as §1

crab grass = experiment: as above; parameters: key: Level 10: completely dead; Level 9: above 95% growth control rate; Level 8: above 90% growth control rate; Level 7: above 80% growth control rate; Level 6: above 70% growth control rate; Level 5: above 60% growth control rate; Level 4: above 50% growth control rate; Level 3: above 20% growth control rate; Level 2: 5%-20% growth control rate; Level 1: below 5% growth control rate; settings: post-emergence spray at 4-5 leaf stage, 250 g/ha active ingredient with 450 kg/ha water, rated after 3 weeks in greenhouse
Outline: as §1

echinochloa = experiment: as above; parameters: key: Level 10: completely dead; Level 9: above 95% growth control rate; Level 8: above 90% growth control rate; Level 7: above 80% growth control rate; Level 6: above 70% growth control rate; Level 5: above 60% growth control rate; Level 4: above 50% growth control rate; Level 3: above 20% growth control rate; Level 2: 5%-20% growth control rate; Level 1: below 5% growth control rate; settings: post-emergence spray at 4-5 leaf stage, 250 g/ha active ingredient with 450 kg/ha water, rated after 3 weeks in greenhouse
Outline: as §1

foxtail = experiment: as above; parameters: key: Level 10: completely dead; Level 9: above 95% growth control rate; Level 8: above 90% growth control rate; Level 7: above 80% growth control rate; Level 6: above 70% growth control rate; Level 5: above 60% growth control rate; Level 4: above 50% growth control rate; Level 3: above 20% growth control rate; Level 2: 5%-20% growth control rate; Level 1: below 5% growth control rate; settings: post-emergence spray at 4-5 leaf stage, 250 g/ha active ingredient with 450 kg/ha water, rated after 3 weeks in greenhouse
Outline: as §1

rorippa indica = experiment: as above; parameters: key: Level 10: completely dead; Level 9: above 95% growth control rate; Level 8: above 90% growth control rate; Level 7: above 80% growth control rate; Level 6: above 70% growth control rate; Level 5: above 60% growth control rate; Level 4: above 50% growth control rate; Level 3: above 20% growth control rate; Level 2: 5%-20% growth control rate; Level 1: below 5% growth control rate; settings: post-emergence spray at 4-5 leaf stage, 250 g/ha active ingredient with 450 kg/ha water, rated after 3 weeks in greenhouse
Outline: as §1

corn = experiment: post-emergence stage experiment, crop (Table 1); settings: post-emergence spray at 4-5 leaf stage, 250 g/ha active ingredient with 450 kg/ha water, rated after 3 weeks in greenhouse
Outline: as §1

wheat [1] = experiment: post-emergence stage experiment, crop (Table 1); settings: post-emergence spray at 4-5 leaf stage, 250 g/ha active ingredient with 450 kg/ha water, rated after 3 weeks in greenhouse
Outline: as §1

rice = experiment: post-emergence stage experiment, crop (Table 1); settings: post-emergence spray at 4-5 leaf stage, 250 g/ha active ingredient with 450 kg/ha water, rated after 3 weeks in greenhouse
Outline: as §1

alopecurus japonicas = experiment: wheat field resistant weed control, greenhouse spray at 4 leaf stage; parameters: key: Level 10: completely dead; Level 9: above 95% growth control rate; Level 8: above 90% growth control rate; Level 7: above 80% growth control rate; Level 6: above 70% growth control rate; Level 5: above 60% growth control rate; Level 4: above 50% growth control rate; Level 3: above 20% growth control rate; Level 2: 5%-20% growth control rate; Level 1: below 5% growth control rate; settings: sprayed at 4 leaf stage, 4 weeks after treatment, resistant to ALS and ACCase inhibitor herbicides
Procedure: The activity level standard of harmful plant destruction (i.e. growth control rate) is as follows:
The above described growth control rate is fresh weight control rate.
The seeds of alopecurus japonicas, flixweed, shepherd's purse, corn gromwell, chickweed, beckmannia syzigachne, and annual ryegrass and wheat seeds were put into a plastic pot loaded with soil, and then covered with 0.5-2 cm soil, the seeds were allowed to grow in good greenhouse environment. The test plants were treated at 4 leaf stage 2-3 weeks after sowing. The test compounds of the present invention were dissolved in acetone respectively, then added with methyl oleate emulsion and diluted by certain amount of water to certain concentration. The solution was sprayed to the plant with a sprayer. Then the plants were cultured for 4 weeks in greenhouse.

wheat [2] = experiment: wheat field test, crop selectivity, greenhouse spray at 4 leaf stage; settings: 4 weeks after treatment
Outline: (§2)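 Potted plants grown in greenhouse were sprayed at the 4 leaf stage, 2–3 weeks post-sowing, with compound in acetone plus methyl oleate emulsion diluted in water. After 4 weeks of further greenhouse culture, growth control was scored as fresh weight control rate.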

chickweed = experiment: wheat field resistant broadleaf weed control, greenhouse spray at 4 leaf stage; parameters: key: Level 10: completely dead; Level 9: above 95% growth control rate; Level 8: above 90% growth control rate; Level 7: above 80% growth control rate; Level 6: above 70% growth control rate; Level 5: above 60% growth control rate; Level 4: above 50% growth control rate; Level 3: above 20% growth control rate; Level 2: 5%-20% growth control rate; Level 1: below 5% growth control rate; settings: 250 g/ha of the active substance; 4 weeks after treatment; ALS inhibitor resistant
Outline: as §2

corn gromwell = experiment: as above; parameters: key: Level 10: completely dead; Level 9: above 95% growth control rate; Level 8: above 90% growth control rate; Level 7: above 80% growth control rate; Level 6: above 70% growth control rate; Level 5: above 60% growth control rate; Level 4: above 50% growth control rate; Level 3: above 20% growth control rate; Level 2: 5%-20% growth control rate; Level 1: below 5% growth control rate; settings: 250 g/ha of the active substance; 4 weeks after treatment; ALS inhibitor resistant
Outline: as §2

flixweed = experiment: as above; parameters: key: Level 10: completely dead; Level 9: above 95% growth control rate; Level 8: above 90% growth control rate; Level 7: above 80% growth control rate; Level 6: above 70% growth control rate; Level 5: above 60% growth control rate; Level 4: above 50% growth control rate; Level 3: above 20% growth control rate; Level 2: 5%-20% growth control rate; Level 1: below 5% growth control rate; settings: 250 g/ha of the active substance; 4 weeks after treatment; ALS inhibitor resistant
Outline: as §2

shepherd's purse = experiment: as above; parameters: key: Level 10: completely dead; Level 9: above 95% growth control rate; Level 8: above 90% growth control rate; Level 7: above 80% growth control rate; Level 6: above 70% growth control rate; Level 5: above 60% growth control rate; Level 4: above 50% growth control rate; Level 3: above 20% growth control rate; Level 2: 5%-20% growth control rate; Level 1: below 5% growth control rate; settings: 250 g/ha of the active substance; 4 weeks after treatment; ALS inhibitor resistant
Outline: as §2

[3] = 2 g/mu, sprayed at 4 leaf stage
[4] = 4 g/mu, sprayed at 4 leaf stage
[5] = 8 g/mu, sprayed at 4 leaf stage
[6] = 16 g/mu, sprayed at 4 leaf stage
[7] = 32 g/mu, sprayed at 4 leaf stage
[8] = 250 g/ha of the active substance

SMILES	weed control effect, Indian mallow (level) (Indian mallow)	weed control effect, Bidens bipinnata (level) (bidens bipinnata)	weed control effect, Crab grass (level) (crab grass)	weed control effect, Echinochloa (level) (echinochloa)	weed control effect, Green foxtail (level) (foxtail)	weed control effect, Rorippa indica (level) (rorippa indica)	effect on crop, Corn (level) (corn)	effect on crop, Wheat (level) (wheat [1])	effect on crop, Rice (level) (rice)	Alopecurus japonicas weed controlling effect (activity level) (alopecurus japonicas; 1 g/mu)	Alopecurus japonicas weed controlling effect (activity level) (alopecurus japonicas; 2 g/mu)	Alopecurus japonicas weed controlling effect (activity level) (alopecurus japonicas; 4 g/mu)	Alopecurus japonicas weed controlling effect (activity level) (alopecurus japonicas; 8 g/mu)	Wheat (activity level, crop damage) (wheat [2]; [3])	Wheat (activity level, crop damage) (wheat [2]; [4])	Wheat (activity level, crop damage) (wheat [2]; [5])	Wheat (activity level, crop damage) (wheat [2]; [6])	Wheat (activity level, crop damage) (wheat [2]; [7])	Wheat (activity level, crop damage) (wheat [2]; [8])	chickweed weed controlling effect (activity level) (chickweed)	other results
CCOc1c(C(=O)Oc2c(C(=O)c3ccc(C(F)(F)F)c(N4CCCCC4=O)c3Cl)c(C3CC3)nn2C)cnn1C [Compound 048]	10	4 (Level 4: above 50% growth control rate)	7 (Level 7: above 80% growth control rate)	6 (Level 6: above 70% growth control rate)	8 (Level 8: above 90% growth control rate)	10	3 (Level 3: above 20% growth control rate)	1 (Level 1: below 5% growth control rate)	5 (Level 5: above 60% growth control rate)	8 (Level 8: above 90% growth control rate)	10	10	10	0	0	0	1 (Level 1: below 5% growth control rate)	4 (Level 4: above 50% growth control rate)	0	10	corn gromwell weed controlling effect (activity level) (corn gromwell): 10; flixweed weed controlling effect (activity level) (flixweed): 10; shepherd's purse weed controlling effect (activity level) (shepherd's purse): 10
Cn1nc(C2CC2)c(C(=O)c2ccc(C(F)(F)F)c(N3CCCCC3=O)c2Cl)c1O [Compound 046]	10	2 (Level 2: 5%-20% growth control rate)	6 (Level 6: above 70% growth control rate)	6 (Level 6: above 70% growth control rate)	10	10	4 (Level 4: above 50% growth control rate)	0	5 (Level 5: above 60% growth control rate)	6 (Level 6: above 70% growth control rate)	9 (Level 9: above 95% growth control rate)	10	10	0	0	0	0	1 (Level 1: below 5% growth control rate)	0	10	corn gromwell weed controlling effect (activity level) (corn gromwell): 10; flixweed weed controlling effect (activity level) (flixweed): 10; shepherd's purse weed controlling effect (activity level) (shepherd's purse): 10
